Experimental data as given in patent US20250262229A1, “APPLICATION OF PHD2 INHIBITOR IN PREPARATION OF DRUGS FOR PREVENTION AND TREATMENT OF PLATELET THROMBUS” (Nankai University, priority 2024, published 2025).
Blank lines part the entries; values can stand above or below the molecule they belong to.

Key:
SD rat platelets [1] = assay: Platelet adhesion to collagen on glass slides, fluorescence imaging analysis; format: cell-based; conditions: IOX2 0.1 μM, 1 μM, 10 μM incubated with 100 μg/mL PHD2 protein; 10 μg/mL type I collagen
Protocol: Different doses of PHD2 inhibitor IOX2 (0.1 μM, 1 μM, 10 μM) are taken and incubated with 100 μg/mL PHD2 protein at 4° C. for 8 hours, then 10 μg/mL type I collagen is mixed with the above solution and added dropwise to glass slides, and incubated at 4° C. overnight. SD rat platelets (2×10^7 cells/mL) are then inoculated on the glass slides and incubated at 37° C. for 90 minutes. After being fully washed by PBS, the fixed platelets are stained with Calcein-AM dye, fluorescence imaging analysis is performed using fluorescence microscope (Leica TCS SP8, Germany), and statistical analysis is performed on platelets with collagen adhesion using Image J software. The results are shown as in FIG. 5A.

SD rat platelets [2] = assay: Collagen-platelet adhesion assay; format: cell-based; conditions: 1 μM IOX2-treated PHD2 protein, 10 μg/mL type I collagen
Protocol: (§1) The binding of platelets to collagen occurs mainly through VWF as a junction. PHD2 promotes the hydroxylation of collagen to form a three-dimensional structure to better bind to VWF. To verify the above principle, 10 μg/mL type I collagen is mixed with 1 μM IOX2-treated PHD2 protein and inoculated into a black 96-well plate, incubated at 4° C. overnight. Parallel triplicates, for the first one, SD rat platelets (2×10^7 cells/mL) are added and incubated at 37° C. for 90 minutes, after full washing with PBS, the fixed platelets are stained with Calcein-AM dye. For the second one, the primary antibody of VWF (Beijing Boaosen Biology technology Co., LTD., bs-20428R) is incubated at 4° C. overnight, after the excess primary antibody is washed away by PBS, the fluorescent secondary antibody (Abcam, ab150077) is incubated at 37° C. for 1 hour, and the excess secondary antibody is washed away. For the third one, SD rat plasma is added, incubated at room temperature for 4 hours, and then SD rat platelets (2×10^7 cells/mL) are added, incubated at 37° C. for 90 minutes, after full washing with PBS, the fixed platelets are stained with Calcein-AM dye. The fluorescence values of respective groups are measured by a multifunctional microplate reader at the excitation wavelength of 488 nm and the emission wavelength of 525 nm.

binding of collagen-VWF = assay: Collagen-VWF binding assay; conditions: 1 μM IOX2-treated PHD2 protein, 10 μg/mL type I collagen; VWF antibody detection
Protocol: as §1

SD rat platelets [3] = assay: Collagen-VWF-platelet adhesion assay; format: cell-based; conditions: 1 μM IOX2-treated PHD2 protein, 10 μg/mL type I collagen; SD rat plasma then platelets
Protocol: as §1

[4] = tested on: soft tissue injury in rats; assay: Blood microcirculation disorder induced by acute soft tissue injury in rats; format: in vivo, SD rats; conditions: N-acetylcysteine 70 mg/kg/d i.p., ginsenoside CK 25 and 12.5 mg/kg/d i.p., vs model group; for whole blood viscosity: low, medium and high shear rate
Protocol: SD male rats are taken and randomly divided into a blank control group, a model group, a positive control group (N-acetylcysteine, intraperitoneally injected at 70 milligrams per kilogram per day abbreviated as mg/kg/d), and high and low dose ginsenoside CK groups (intraperitoneally injected at 25 mg/kg/d and 12.5 mg/kg/d). The blank control group and the model group are given the same volume of sterile drinking water in the same manner. The molding is investigated three days after pre-administration. The rats are first anesthetized with 1% pentobarbital sodium (40 mg/kg), and the hair of the right buttocks and posterior thighs of the anesthetized rats are removed and fixed on the plate of an acute soft tissue injury modeling device. A 100 g weight is selected to impact the lateral aspect of the mid-right calf with five free-falls from a height of 100 centimeters (cm) causing soft tissue injury. The rats with successful modeling are continued to be administered for 4 days, and 1 hour after the last administration, the rats are anesthetized, blood is collected from the abdominal aorta with a blood viscometer to detect the viscosity of whole blood of the rats with high shear rate [200 s], medium shear rate [30 s], low shear rate [3 s], and low shear rate [1 s]. Coagulation parameters, such as erythrocyte aggregation index, erythrocyte packed-cell volume, platelet number and mean platelet volume, are determined by using a blood cell analyzer.

[5] = tested on: LPS-induced DIC model in mice; assay: LPS-induced disseminated intravascular coagulation (DIC) model in mice; format: in vivo; conditions: aspirin 10 mg/kg taken orally, Daprodustat 10 mg/kg intraperitoneal injection
Protocol: The sh-PHD2 mice and sh-ctrl blank mice are randomly divided into a blank group and a model group, with 6 mice in each group. The model group is injected intraperitoneally with 10 milligrams per kilogram (mg/kg) lipopolysaccharide abbreviated as LPS (Beijing Solarbio Science & Technology Co., Ltd., Cat. No. L8880) to induce the mice to establish a disseminated intravascular coagulation (DIC) model, and the blank group is injected intraperitoneally with the corresponding volume of physiological saline. After 2 hours, the mice are anesthetized by intraperitoneal injection of 1% pentobarbital sodium (40 mg/kg), and the tail is cut at a site of 3 millimeters (mm) from the tip of the tail of each mouse, and the tail is placed vertically in 37° C. physiological saline immediately after the first drop of blood is sucked up on filter paper to record the tail bleeding time.
In addition to the blank group, the other groups use the method of the embodiment 1 to prepare the LPS-induced DIC model in mice, and the administration group is given drug intervention 1 hour before modeling.

PHD2 protein [6] = biological target: T1, PHD2 protein (Homo sapiens, UniProt Q9GZT9); assay: Surface plasmon resonance (SPR) interaction analysis with PHD2; format: binding; conditions: Biacore T200, CM5 chip, 1.56 μM to 200 μM, read-out: dissociation constants KD with PHD2 protein
T1 sequence (Q9GZT9 whole entry): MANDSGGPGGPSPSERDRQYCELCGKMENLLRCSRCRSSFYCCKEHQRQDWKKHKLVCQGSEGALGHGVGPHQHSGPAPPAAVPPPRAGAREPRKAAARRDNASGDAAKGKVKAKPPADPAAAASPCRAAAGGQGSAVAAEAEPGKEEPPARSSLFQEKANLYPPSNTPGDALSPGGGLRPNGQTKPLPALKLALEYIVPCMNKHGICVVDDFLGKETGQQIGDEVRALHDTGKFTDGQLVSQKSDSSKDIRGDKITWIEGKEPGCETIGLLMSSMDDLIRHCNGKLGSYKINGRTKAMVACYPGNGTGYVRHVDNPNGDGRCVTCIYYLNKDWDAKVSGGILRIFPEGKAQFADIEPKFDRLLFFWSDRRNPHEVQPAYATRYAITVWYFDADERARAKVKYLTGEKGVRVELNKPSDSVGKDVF
Protocol: The interaction between these active natural products and recombinant human PHD2 protein is analyzed by surface plasmon resonance (SPR) technique using a Biacore™ T200 surface plasmon resonance analyzer from GE healthcare. The CM5 chip is selected, the purified PHD2 protein is immobilized on the channel of the chip, and the active natural product solution as a mobile phase is flowed through the chip, with the concentration ranging from 1.56 μM to 200 μM. The flow rate of mobile phase is 30 μL/min, and the dissociation is monitored for 150 seconds.

PHD2 protein [7] = biological target: T1, PHD2 protein; assay: PHD2 enzyme activity, 2-oxogalarate-phenylenediamine method; format: biochemical; parameters: purchased Abcam ab132273
Protocol: 1 micromole per liter (μM) PHD2 inhibitor is incubated with 100 micrograms per milliliter (μg/mL) PHD2 protein (Abcam, Cat. No. ab132273) at 4° C. for 8 hours, and its inhibitory effect on PHD2 enzyme activity is determined according to the 2-oxogalarate-phenylenediamine method.
100 μL of PHD2 enzyme solution incubated with the PHD2 inhibitor is taken and 100 μL of reaction substrate (300 μM of 2-oxogalarate, 150 μM of Fe^2+) is added, followed by 100 μL of 0.5 moles (M) of hydrogen chloride (HCl) and 10 mg/mL of o-phenylenediamine, and the reaction is carried out at 95° C. for 15 minutes after mixing, so as to obtain a reaction product. The reaction product is centrifuged to taken the supernatant, 10 μL of 1.25 M of sodium hydroxide (NaOH) is added to terminate the reaction, and the fluorescence value of the reaction is determined using 340 nanometers (nm) excitation at the emission wavelength of 420 nm, the results are shown in FIG. 3B.

[8] = tested on: Pseudomonas aeruginosa infected mice; assay: Blood coagulation function in mice infected with Pseudomonas aeruginosa; format: in vivo, ICR (CD-1) mice; conditions: plasma 24 hours after infection; polydatin 10, 20, 40 mg/kg i.p.; aspirin 30 mg/kg gavage; Daprodustat 15 mg/kg i.p.; vs model group
Protocol: ICR (CD-1) male mice are taken and randomly divided into 7 groups (6 mice in each group), which are a blank control group, a model group, an aspirin positive control group (gavage at 30 mg/kg), a Daprodustat-positive control group (intraperitoneally injected at 15 mg/kg), and low, medium and high doses of polydatin group (intraperitoneally injected at 10 mg/kg, 20 mg/kg, 40 mg/kg). Mice are anesthetized by intraperitoneal injection of 1% pentobarbital sodium (40 mg/kg). Activated Pseudomonas aeruginosa (1×10^7/20 μL) is added dropwise into the nasal cavity of mice in the model group and each administration group, and an equal amount of physiological saline is dropped into the blank control group. The respective groups are administered at 0 and 8 hours after molding, respectively. 24 hours after infection, plasma is obtained by blood sampling from mouse eyeballs, and four indexes of coagulation (prothrombin time, activated partial […] and fibrinogen) are measured by a semi-automatic coagulation analyzer.

SMILES: O=C(O)CNC(=O)c1c(O)c2ccccc2n(Cc2ccccc2)c1=O [IOX2, N-[[1,2-dihydro-4-hydroxy-2-oxo-1-(phenylmethyl)-3-quinolinyl]carbonyl]-glycine]
- platelet adhesion to collagen (fluorescence imaging) (SD rat platelets [1]): inhibits platelet adhesion to collagen in a concentration-dependent manner
- PHD2-mediated collagen-platelet adhesion (SD rat platelets [2]): significantly reduces the occurrence of PHD2-mediated platelet adhesion
- binding of collagen-VWF (binding of collagen-VWF): affecting the binding of collagen-VWF
- collagen-VWF-platelet adhesion (SD rat platelets [3]): blocking the binding of collagen-VWF-platelet adhesion

SMILES: CC(=O)N[C@@H](CS)C(=O)O [N-acetylcysteine, reference compound]
- erythrocyte aggregation index [4]: significantly reduce
- erythrocyte packed-cell volume [4]: significantly reduce
- mean platelet volume [4]: improved
- platelet number [4]: significantly reduce
- whole blood viscosity [4]: improved to a certain extent

SMILES: CC(=O)Oc1ccccc1C(=O)O [aspirin]
- pulmonary thrombi, Masson staining of lung tissues [5]: significantly inhibit the formation of thrombus
- tail bleeding time ([5]; vs LPS group): significantly increase
- tail bleeding volume ([5]; vs LPS group): significantly increase

SMILES: CC(C)=CCC[C@](C)(O[C@@H]1O[C@H](CO)[C@@H](O)[C@H](O)[C@H]1O)[C@H]1CC[C@]2(C)[C@@H]1[C@H](O)C[C@@H]1[C@@]3(C)CC[C@H](O)C(C)(C)[C@@H]3CC[C@]12C [ginsenoside CK]
- Kd (PHD2 protein [6]): 18 µM
- erythrocyte aggregation index [4]: significantly reduce
- erythrocyte packed-cell volume [4]: significantly reduce
- mean platelet volume [4]: improved
- platelet number [4]: significantly reduce
- whole blood viscosity [4]: improved to a certain extent
- inhibition of PHD2 enzyme activity (PHD2 protein [7]; ginsenoside CK at 0.5 μM, 5 μM, 50 μM): inhibit the PHD2 enzyme activity in a concentration gradient

- Kd (PHD2 protein [6]): 23.5 µM
SMILES: OC[C@H]1O[C@@H](Oc2cc(O)cc(/C=C/c3ccc(O)cc3)c2)[C@H](O)[C@@H](O)[C@@H]1O [polydatin]
- activated partial thrombin time [8]: significantly prolong
- fibrinogen content in blood [8]: reduced
- prothrombin time [8]: significantly prolong
- thrombin time [8]: significantly prolong
- inhibition of PHD2 enzyme activity (PHD2 protein [7]; polydatin at 0.1 μM, 1 μM, 10 μM): inhibit the PHD2 enzyme activity in a concentration gradient
